Reference: patent US20170253601A1, “Substituted Pyrrolidine Compounds” (EPIZYME, INC., priority 2014, published 2017)

Test system: esophageal, liver and breast cancer cell lines
Assay: not given
Conditions: several esophageal, dose-dependent; cited from earlier work

SMILES | inhibition of proliferation of cancer cell lines
Cc1cn(CCN2CCN(c3ccccc3-c3cc(C#N)cc(C(=O)NCCCN4CCCC4)c3)CC2)c2ccccc12 [LLY-507] | inhibited the proliferation

Target: T1, SMYD2 (Homo sapiens, UniProt Q9NRG4)
T1 construct: Full length SMYD2 (NP 064582.2) was cloned; His6 (N, cleaved yes); FLAG (N); made in house; host or cells: Sf9 insect cells
Assay: SMYD2 Biochemical Assay (3H-SAM, biotinylated peptide substrate, Flashplate)
Conditions: IC50 values are an average of n = 1 to n = 50; read-out: SMYD2 Biochem IC50 (μM)*
Summary of the method: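 Methyltransferase activity tracked as 3H transfer from 10 nM 3H-SAM to 60 nM biotinylated peptide, counted after streptavidin Flashplate capture and normalised to DMSO and 1000 uM SAH controls. Enzyme: 1.5 nM full-length Sf9-expressed SMYD2, 30 min compound pre-incubation at room temperature, in Bicine pH 7.6 buffer with 2% DMSO; reactions quenched with 600 uM unlabelled SAM; IC50 from 3- or 4-parameter fit.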

T1 sequence (Q9NRG4 whole entry): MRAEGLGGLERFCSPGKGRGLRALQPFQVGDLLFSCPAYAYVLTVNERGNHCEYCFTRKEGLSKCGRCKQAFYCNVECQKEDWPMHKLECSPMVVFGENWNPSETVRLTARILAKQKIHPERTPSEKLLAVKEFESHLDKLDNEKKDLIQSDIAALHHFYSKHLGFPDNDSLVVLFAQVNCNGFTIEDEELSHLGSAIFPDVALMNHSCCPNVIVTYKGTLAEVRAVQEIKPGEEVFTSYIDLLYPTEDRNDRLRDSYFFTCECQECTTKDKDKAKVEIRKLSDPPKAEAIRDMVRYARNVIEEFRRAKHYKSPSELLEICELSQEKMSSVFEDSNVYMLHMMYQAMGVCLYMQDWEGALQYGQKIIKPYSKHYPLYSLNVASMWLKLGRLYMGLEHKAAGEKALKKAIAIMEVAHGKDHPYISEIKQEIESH

SMILES | IC50 [µM]
CC(C)c1cc(C(=O)N[C@H]2C[C@H](CNC(=O)c3ccccc3)N(C3CC3)C2)no1 (stereo in doubt) [compound 189, (±)-trans-N-[1-cyclopropyl-5-[(phenyl-formamido)methyl]pyrrolidin-3-yl]-5-(propan-2-yl)-1,2-oxazole-3-carboxamide] | > 50
CC(C)c1cc(C(=O)N[C@H]2C[C@H](CNC(=O)C3CCCCC3)N(C3CC3)C2)no1 (stereo in doubt) [compound 190, (±)-trans-N-[5-[(cyclohexyl-formamido)methyl]-1-cyclopropylpyrrolidin-3-yl]-5-(propan-2-yl)-1,2-oxazole-3-carboxamide] | > 50
CC(C)N1C[C@@H](NC(=O)c2cc(C3CC3)on2)C[C@@H]1COCC#CC1CCCCC1 (stereo in doubt) [compound 236, (±)-trans-N-[5-{[(3-cyclo-hexylprop-2-yn-1-yl)oxy]methyl}-1-(propan-2-yl)pyrrolidin-3-yl]-5-cyclopropyl-1,2-oxazole-3-carboxamide] | > 50
CC(C)N1C[C@H](NC(=O)c2cc(C3CC3)on2)C[C@@H]1COCC#Cc1ccccc1 (stereo in doubt) [compound 238, (±)-cis-5-cyclopropyl-N-[5-{[(3-phenylprop-2-yn-1-yl)oxy]methyl}-1-(propan-2-yl)pyrrolidin-3-yl]-1,2-oxazole-3-carboxamide] | 39.7
CC(C)N1C[C@@H](NC(=O)c2cc(C3CC3)on2)C[C@H]1COCC#Cc1ccccc1 (stereo in doubt) [compound 240, (±)-cis-5-cyclopropyl-N-[(5-{[(3-phenylprop-2-yn-1-yl)oxy]methyl}-1-(propan-2-yl)pyrrolidin-3-yl]-1,2-oxazole-3-carboxamide] | > 50
CC(C)c1cc(C(=O)N[C@@H]2C[C@@H](CNC(=O)c3ccccc3)N(C3CC3)C2)no1 (stereo in doubt) [compound 242, (±)-trans-N-[1-cyclo-propyl-5-[(phenyl-formamido)methyl]pyrrolidin-3-yl]-5-(propan-2-yl)-1,2-oxazole-3-carboxamide] | > 50
CC(C)c1cc(C(=O)N[C@@H]2C[C@@H](CNC(=O)C3CCCCC3)N(C3CC3)C2)no1 (stereo in doubt) [compound 243, (±)-trans-N-[5-[(cyclo-hexylformamido)methyl]-1-cyclopropylpyrrolidin-3-yl]-5-(propan-2-yl)-1,2-oxazole-3-carboxamide] | > 50
CC(C)N1C[C@H](NC(=O)c2cc(C3CC3)on2)C[C@H]1COCC#CC1CCCCC1 (stereo in doubt) [compound 244, (±)-trans-N-[5-{[(3-cyclo-hexylprop-2-yn-1-yl)oxy]methyl}-1-(propan-2-yl)pyrrolidin-3-yl]-5-cyclopropyl-1,2-oxazole-3-carboxamide] | > 50
CC(N1C[C@H](C)[C@H](NC(=O)c2cc(C3CC3)on2)C1)C(F)(F)F (stereo in doubt) [compound 285, trans-5-cyclopropyl-N-[4-methyl-1-(1,1,1-trifluoropropan-2-yl)pyrrolidin-3-yl]-1,2-oxazole-3-carboxamide] | > 50
C[C@H](c1ccccc1)N1C[C@@H](CO)[C@H](NC(=O)c2cc(C3CC3)on2)C1 [compound 119, 5-cyclopropyl-N-[(3S,4R)-4-(hydroxymethyl)-1-[(1R)-1-phenylethyl]pyrrolidin-3-yl]-1,2-oxazole-3-carboxamide] | 38.2
O=C(N[C@@H]1CN(C2CC2)C[C@H]1CO)c1cc(C2CC2)on1 [compound 168, 5-cyclopropyl-N-[(3S,4R)-1-cyclopropyl-4-(hydroxymethyl)pyrrolidin-3-yl]-1,2-oxazole-3-carboxamide] | 43.2
C[C@@H]1CN(Cc2ccc3nonc3c2)C[C@H]1NC(=O)c1cc(C2CC2)on1 [compound 182, N-[(3S,4R)-1-(2,1,3-benzoxadiazol-5-ylmethyl)-4-methyl-pyrrolidin-3-yl]-5-cyclopropyl-1,2-oxazole-3-carboxamide] | > 50
CC(C)N1C[C@H](NC(=O)c2cc(C3CC3)on2)[C@@](C)(O)C1 [compound 246, 5-cyclopropyl-N-[(3S,4S)-4-hydroxy-4-methyl-1-(propan-2-yl)pyrrolidin-3-yl]-1,2-oxazole-3-carboxamide] | > 50
CC(N1C[C@@H](C)[C@H](NC(=O)c2cc(C3CC3)on2)C1)C(F)(F)F (stereo partly drawn) [compound 247, trans-5-cyclopropyl-N-[(3S,4R)-4-methyl-1-(1,1,1-trifluoropropan-2-yl)pyrrolidin-3-yl]-1,2-oxazole-3-carboxamide] | > 50

Second part, the compound after the results:

IC50 [µM] | SMILES
9.31 | CC(Cc1ccc2c(c1)OCO2)CN1C[C@H](C)[C@H](NC(=O)c2cc(C3CC3)on2)C1 (relative stereo) [compound 323, cis-N-{1-[2-(2H-1,3-benzodioxol-5-ylmethyl)propyl]-4-methylpyrrolidin-3-yl}-5-cyclopropyl-1,2-oxazole-3-carboxamide]
1.15 | CCC(c1ccccc1)N1C[C@H](C)[C@H](NC(=O)c2cc(C3CC3)on2)C1 (relative stereo) [compound 329, cis-5-cyclopropyl-N-[4-methyl-1-(1-phenyl-propyl)pyrrolidin-3-yl]-1,2-oxazole-3-carboxamide]
9.44 | C[C@H]1CN(C(CO)c2ccccc2)C[C@H]1NC(=O)c1cc(C2CC2)on1 (relative stereo) [compound 330, cis-5-cyclopropyl-N-[1-(2-hydroxy-1-phenylethyl)-4-methyl-pyrrolidin-3-yl]-1,2-oxazole-3-carboxamide]
10.2 | CC(c1cc(C(=O)N[C@@H]2CN(C(C)C)C[C@@H]2C)no1)C(F)F (relative stereo) [compound 344, cis-5-(1,1-difluoropropan-2-yl)-N-[4-methyl-1-(propan-2-yl)pyrrolidin-3-yl]-1,2-oxazole-3-carboxamide]
5.28 | CCOC(=O)C1CC1CN1C[C@H](C)[C@H](NC(=O)c2cc(C3CC3)on2)C1 (stereo in doubt) [compound 176, cis-ethyl 2-{[3-(5-cyclopropyl-1,2-oxazole-3-amido)-4-methylpyrrolidin-1-yl]methyl}cyclopropane-1-carboxylate]
0.682 | CC(C)N1C[C@@H](C)[C@@H](NC(=O)c2cc(C3CC3)on2)C1 [compound 234, 5-cyclopropyl-N-[(3R,4R)-4-methyl-1-(propan-2-yl)pyrrolidin-3-yl]-1,2-oxazole-3-carboxamide]
1.15 | C[C@@H]1CN(C2CC2)C[C@@H]1NC(=O)c1cc(C2CC2)on1 [compound 235, 5-cyclopropyl-N-[(3R,4R)-1-cyclopropyl-4-methyl-pyrrolidin-3-yl]-1,2-oxazole-3-carboxamide]
10.5 | CC(C)N1CC(CNC(=O)c2ccccc2)C(NC(=O)c2cc(C3CC3)on2)C1 (stereo not shown) [compound 237, 5-cyclopropyl-N-{4-[(phenylformamido)methyl]-1-(propan-2-yl)pyrrolidin-3-yl}-1,2-oxazole-3-carboxamide]
6.8 | CC(C)N1C[C@@H](NC(=O)c2cc(C3CC3)on2)[C@](C)(O)C1 [compound 245, 5-cyclopropyl-N-[(3R,4R)-4-hydroxy-4-methyl-1-(propan-2-yl)pyrrolidin-3-yl]-1,2-oxazole-3-carboxamide]

Same assay, conditions: Table 1; average of n = 1 to n = 50; read-out: SMYD2 Biochem IC50

IC50 [µM] | SMILES
32.5 | O=C(NC1CCN(C2CC2)C1)c1cc(C2CC2)on1 (stereo not shown) [compound 36, 5-cyclopropyl-N-(1-cyclopropylpyrrolidin-3-yl)isoxazole-3-carboxamide]
36.1 | O=C(NC1CNCC1O)c1cc(C2CC2)on1 (stereo not shown) [compound 37, 5-cyclopropyl-N-(4-hydroxypyrrolidin-3-yl)isoxazole-3-carboxamide]
18.2 | CC(C)N1C[C@@H](C)[C@H](NC(=O)c2cc(C3CC3)on2)C1 [compound 41, 5-cyclopropyl-N-((3S,4R)-1-isopropyl-4-methylpyrrolidin-3-yl)isoxazole-3-carboxamide]
1.9 | CC(C)N1C[C@H](NC(=O)c2cc(C3CC3)on2)[C@@H](C)C1 [compound 42, 5-cyclopropyl-N-((3R,4S)-1-isopropyl-4-methyl-pyrrolidin-3-yl)isoxazole-3-carboxamide]
